Reference: patent US8247211B2, “Glycopeptide antibiotics” (American Cyanamid Company, priority 2001, dated 2012)
Values after ≈ are worked out from the molar mass of the structure shown.

Experiments:
Experiment in all cases: In vitro antibacterial evaluation: minimum inhibitory concentration (MIC), broth dilution method
Type in all cases: cell-based
Streptococcus sp. = details: broth dilution, 5×10^5 CFU/mL, 18 hours at 35° C.
Description: (§1) The minimum inhibitory concentration (MIC), the lowest concentration of the antibiotic which inhibits growth of the test organism, is determined by the broth dilution method using Muller-Hinton II […] (Baltimore Biological Laboratories) following the recommendations of the National Committee for Clinical Laboratory Standards [Methods for dilution antimicrobial susceptibility tests for bacteria that grow aerobically, approved standard M7-A2, National Committee for Clinical Laboratory Standards, Villanova, Pa].
(§2) An inoculum level of 5×10^5 CFU/mL, and a range of antibiotic concentrations (64-0.06 μg/mL) is used. […] The test organisms include a spectrum of Gram-positive bacteria comprised of Staphylococcus sp., Streptococcus sp. and Enterococcus sp. These organisms include recent clinical isolates that are resistant to methicillin, penicillin and/or vancomycin.

Enterococcus sp. = details: broth dilution, 5×10^5 CFU/mL, 18 hours at 35° C.
Description: as §1, §2

Escherichia coli = details: 5×10^5 CFU/mL, 18 hours at 35° C.
Description: as §1, §2

Staphylococcus sp. = details: for MIC Staphylococcus aureus (ATCC 29213): strain ATCC 29213; for MIC Staphylococcus aureus (GC 1131): strain GC 1131; for MIC Staphylococcus aureus (GC 4541): strain GC 4541; for MIC Staphylococcus aureus (GC 4542): strain GC 4542; for MIC Staphylococcus aureus-SMITH (GC 4543): strain GC 4543; for MIC Staphylococcus aureus (GC 4544): strain GC 4544; for MIC Staphylococcus aureus (GC 4545): strain GC 4545; for MIC Staphylococcus haemolyticus (GC 4546): strain GC 4546; for MIC Coagulase Negative Staphylococcus (GC 4547): strain GC 4547; for MIC Coagulase Negative Staphylococcus (GC 4548): strain GC 4548; for MIC Coagulase Negative Staphylococcus (GC 4549): strain GC 4549; for MIC Coagulase Negative Staphylococcus (GC 4551): strain GC 4551; for MIC Coagulase Negative Staphylococcus (ID-3941): strain ID-3941
Description: as §1, §2

[1] = broth dilution, 18 hours at 35° C.

Row | MIC Streptococcus agalactiae (GC 4564) (Streptococcus sp.) [µg/mL] | MIC Streptococcus pneumoniae (GC 4565) (Streptococcus sp.) [µg/mL] | MIC Enterococccus avium (GC 4558) (Enterococcus sp.) [µg/mL] | MIC Enterococccus faecalis (ATCC 29212) (Enterococcus sp.) [µg/mL] | MIC Enterococccus faecalis (GC 4552) (Enterococcus sp.) [µg/mL] | MIC Enterococccus faecalis (GC 4553) (Enterococcus sp.) [µg/mL] | MIC Enterococccus faecalis (GC 4554) (Enterococcus sp.) [µg/mL] | MIC Enterococccus faecium (GC 2243) (Enterococcus sp.) [µg/mL] | MIC Enterococccus faecium (GC 4556) (Enterococcus sp.) [µg/mL] | MIC Enterococccus faecium (GC 4557) (Enterococcus sp.) [µg/mL] | MIC Enterococcus faecalis (GC 2242) (Enterococcus sp.) [µg/mL] | MIC Escherichia coli (ATCC 25922) (Escherichia coli) [µg/mL] | MIC Staphylococcus aureus (ATCC 29213) (Staphylococcus sp.) [µg/mL] | MIC Staphylococcus aureus (GC 1131) (Staphylococcus sp.) [µg/mL] | MIC Staphylococcus aureus (GC 4541) (Staphylococcus sp.) [µg/mL] | MIC Staphylococcus aureus (GC 4542) (Staphylococcus sp.) [µg/mL] | MIC Staphylococcus aureus-SMITH (GC 4543) (Staphylococcus sp.; 18 hours at 35° C.) [µg/mL] | MIC Staphylococcus aureus-SMITH (GC 4543) (Staphylococcus sp.; [1]) [µg/mL] | MIC Staphylococcus aureus (GC 4544) (Staphylococcus sp.) [µg/mL] | MIC Staphylococcus aureus (GC 4545) (Staphylococcus sp.) [µg/mL] | SMILES | further results
1 | 0.5 (≈ 0.322 µM) | 0.5 (≈ 0.322 µM) | 4 (≈ 2.58 µM) | 8 (≈ 5.16 µM) | 8 (≈ 5.16 µM) | 8 (≈ 5.16 µM) | 16 (≈ 10.3 µM) | 8 (≈ 5.16 µM) | 8 (≈ 5.16 µM) | 4 (≈ 2.58 µM) | 8 (≈ 5.16 µM) | 64 (≈ 41.2 µM) | 8 (≈ 5.16 µM) | 8 (≈ 5.16 µM) | 16 (≈ 10.3 µM) | 8 (≈ 5.16 µM) | 8 (≈ 5.16 µM) | 8 (≈ 5.16 µM) | 16 (≈ 10.3 µM) | 8 (≈ 5.16 µM) | N=C1NCC(C(O)C2NC(=O)C(Cc3ccc(OC4OC(CO)C(OC5OC6COC7(OC6C6OC8(OC56)C5CC6CC(C5)CC8C6)C5CC6CC(C5)CC7C6)C(O)C4O)cc3)NC(=O)C(CC3CCCCC3)NC(=O)CNC(=O)C(CO)NC(=O)C(C(O)C3CNC(=N)N3C3OC(CO)C(O)C(O)C3O)NC2=O)N1 (stereo not shown) [Example 106b] | MIC Streptococcus pneumoniae (GC 1894) (Streptococcus sp.): <0.12 µg/mL; MIC Streptococcus pneumonine (ATCC 6301) (Streptococcus sp.): 0.5 µg/mL (≈ 0.322 µM); MIC Streptococcus pyogenes (GC 4563) (Streptococcus sp.): 0.5 µg/mL (≈ 0.322 µM); MIC Enterococccus faecalis (GC 2691) (Enterococcus sp.): 16 µg/mL (≈ 10.3 µM); MIC Enterococccus faecalis (GC 3059) (Enterococcus sp.): 16 µg/mL (≈ 10.3 µM); MIC Enterococccus faecalis (GC 6189) (Enterococcus sp.): 8 µg/mL (≈ 5.16 µM); MIC Escherichia coli (GC 4559) (Escherichia coli): 32 µg/mL (≈ 20.6 µM); MIC Escherichia coli (GC 4560) (Escherichia coli): 8 µg/mL (≈ 5.16 µM); MIC Staphylococcus aureus (GC 3051) (Staphylococcus sp.; strain GC 3051): 8 µg/mL (≈ 5.16 µM); MIC Staphylococcus aureus (GC 3053) (Staphylococcus sp.; strain GC 3053): 8 µg/mL (≈ 5.16 µM); MIC Staphylococcus haemolyticus (GC 4546) (Staphylococcus sp.): 4 µg/mL (≈ 2.58 µM); MIC Staphylococcus haemolyticus (GC 4546) (Staphylococcus sp.; [1]): 4 µg/mL (≈ 2.58 µM); MIC Coagulase Negative Staphylococcus (GC 4547) (Staphylococcus sp.): 8 µg/mL (≈ 5.16 µM); MIC Coagulase Negative Staphylococcus (GC 4547) (Staphylococcus sp.; [1]): 8 µg/mL (≈ 5.16 µM); MIC Coagulase Negative Staphylococcus (GC 4548) (Staphylococcus sp.): 4 µg/mL (≈ 2.58 µM); MIC Coagulase Negative Staphylococcus (GC 4548) (Staphylococcus sp.; [1]): 4 µg/mL (≈ 2.58 µM); MIC Coagulase Negative Staphylococcus (GC 4549) (Staphylococcus sp.): 4 µg/mL (≈ 2.58 µM); MIC Coagulase Negative Staphylococcus (GC 4549) (Staphylococcus sp.; [1]): 4 µg/mL (≈ 2.58 µM); MIC Coagulase Negative Staphylococcus (GC 4551) (Staphylococcus sp.): 8 µg/mL (≈ 5.16 µM); MIC Coagulase Negative Staphylococcus (GC 4551) (Staphylococcus sp.; [1]): 8 µg/mL (≈ 5.16 µM)
2 | 0.25 (≈ 0.183 µM) | <0.12 | 8 (≈ 5.87 µM) | 4 (≈ 2.93 µM) | 4 (≈ 2.93 µM) | 8 (≈ 5.87 µM) | 4 (≈ 2.93 µM) | 8 (≈ 5.87 µM) | 4 (≈ 2.93 µM) | 2 (≈ 1.47 µM) | 4 (≈ 2.93 µM) | 64 (≈ 46.9 µM) | 1 (≈ 0.733 µM) | 2 (≈ 1.47 µM) | 2 (≈ 1.47 µM) | 1 (≈ 0.733 µM) | 1 (≈ 0.733 µM) | 1 (≈ 0.733 µM) | 2 (≈ 1.47 µM) | 1 (≈ 0.733 µM) | CC(C)CC1OCC2OC(OC3C(CO)OC(Oc4ccc(CC5NC(=O)C(C(C)c6ccccc6)NC(=O)CNC(=O)C(CO)NC(=O)C(C(O)C6CNC(=N)N6C6OC(CO)C(O)C(O)C6O)NC(=O)C(C(O)C6CNC(=N)N6)NC5=O)cc4)C(O)C3O)C(O)C(O)C2O1 (stereo not drawn) [Example 107, Cyclo[glycyl-β-methylphenylalanyl-O-[4-O-[4,6-O-(3-methylbutylidene)hexopyranosyl]-hexopyranosyl]tyrosyl-3-(2-iminoimidazolidin-4-yl)seryl-3-(3-hexopyranosyl-2-iminoimidazolidin-4-yl)serylseryl]] | MIC Streptococcus pyogenes (ID-3187) (Streptococcus sp.): 0.25 µg/mL (≈ 0.183 µM); MIC Staphylococcus aureus (ATCC 29213) (Staphylococcus sp.; [1]): 1 µg/mL (≈ 0.733 µM); MIC Staphylococcus aureus (GC 1131) (Staphylococcus sp.; [1]): 2 µg/mL (≈ 1.47 µM); MIC Staphylococcus aureus (GC 4541) (Staphylococcus sp.; [1]): 2 µg/mL (≈ 1.47 µM); MIC Staphylococcus aureus (GC 4542) (Staphylococcus sp.; [1]): 1 µg/mL (≈ 0.733 µM); MIC Staphylococcus aureus (GC 4544) (Staphylococcus sp.; [1]): 2 µg/mL (≈ 1.47 µM); MIC Staphylococcus aureus (GC 4545) (Staphylococcus sp.; [1]): 1 µg/mL (≈ 0.733 µM); MIC Staphylococcus haemolyticus (GC 4546) (Staphylococcus sp.): 1 µg/mL (≈ 0.733 µM); MIC Staphylococcus haemolyticus (GC 4546) (Staphylococcus sp.; [1]): 1 µg/mL (≈ 0.733 µM); MIC Coagulase Negative Staphylococcus (GC 4547) (Staphylococcus sp.): 1 µg/mL (≈ 0.733 µM); MIC Coagulase Negative Staphylococcus (GC 4547) (Staphylococcus sp.; [1]): 1 µg/mL (≈ 0.733 µM); MIC Coagulase Negative Staphylococcus (GC 4548) (Staphylococcus sp.): 1 µg/mL (≈ 0.733 µM); MIC Coagulase Negative Staphylococcus (GC 4548) (Staphylococcus sp.; [1]): 1 µg/mL (≈ 0.733 µM); MIC Coagulase Negative Staphylococcus (GC 4549) (Staphylococcus sp.): 1 µg/mL (≈ 0.733 µM); MIC Coagulase Negative Staphylococcus (GC 4549) (Staphylococcus sp.; [1]): 1 µg/mL (≈ 0.733 µM); MIC Coagulase Negative Staphylococcus (GC 4551) (Staphylococcus sp.): 1 µg/mL (≈ 0.733 µM); MIC Coagulase Negative Staphylococcus (GC 4551) (Staphylococcus sp.; [1]): 1 µg/mL (≈ 0.733 µM); MIC Coagulase Negative Staphylococcus (ID-3941) (Staphylococcus sp.): 1 µg/mL (≈ 0.733 µM); MIC Coagulase Negative Staphylococcus (ID-3941) (Staphylococcus sp.; [1]): 1 µg/mL (≈ 0.733 µM)
3 | <0.5 | <0.5 | 2 (≈ 1.45 µM) | 2 (≈ 1.45 µM) | 2 (≈ 1.45 µM) | 2 (≈ 1.45 µM) | 2 (≈ 1.45 µM) | 2 (≈ 1.45 µM) | 2 (≈ 1.45 µM) | 1 (≈ 0.726 µM) | 2 (≈ 1.45 µM) | 32 (≈ 23.2 µM) | 1 (≈ 0.726 µM) | 1 (≈ 0.726 µM) | 1 (≈ 0.726 µM) | 1 (≈ 0.726 µM) | 1 (≈ 0.726 µM) | 1 (≈ 0.726 µM) | 1 (≈ 0.726 µM) | 1 (≈ 0.726 µM) | CCCCCC1OCC2OC(OC3C(CO)OC(Oc4ccc(CC5NC(=O)C(C(C)c6ccccc6)NC(=O)CNC(=O)C(CO)NC(=O)C(C(O)C6CNC(=N)N6C6OC(CO)C(O)C(O)C6O)NC(=O)C(C(O)C6CNC(=N)N6)NC5=O)cc4)C(O)C3O)C(O)C(O)C2O1 (stereo not drawn) [Example 108, Cyclo[glycyl-β-methylphenylalanyl-O-[4-O-(4,6-O-hexylidenehexonyranosyl)hexopyranosyl]-tyrosyl-3-(2-iminoimidazolidin-4-yl)seryl-3-(3-hexopyranosyl-2-iminoimidazolidin-4-yl)-serylseryl]] | MIC Streptococcus pyogenes (ID-3187) (Streptococcus sp.): <0.5 µg/mL; MIC Staphylococcus aureus (ATCC 29213) (Staphylococcus sp.; [1]): 1 µg/mL (≈ 0.726 µM); MIC Staphylococcus aureus (GC 1131) (Staphylococcus sp.; [1]): 1 µg/mL (≈ 0.726 µM); MIC Staphylococcus aureus (GC 4541) (Staphylococcus sp.; [1]): 1 µg/mL (≈ 0.726 µM); MIC Staphylococcus aureus (GC 4542) (Staphylococcus sp.; [1]): 1 µg/mL (≈ 0.726 µM); MIC Staphylococcus aureus (GC 4544) (Staphylococcus sp.; [1]): 1 µg/mL (≈ 0.726 µM); MIC Staphylococcus aureus (GC 4545) (Staphylococcus sp.; [1]): 1 µg/mL (≈ 0.726 µM); MIC Staphylococcus haemolyticus (GC 4546) (Staphylococcus sp.): 1 µg/mL (≈ 0.726 µM); MIC Staphylococcus haemolyticus (GC 4546) (Staphylococcus sp.; [1]): 1 µg/mL (≈ 0.726 µM); MIC Coagulase Negative Staphylococcus (GC 4547) (Staphylococcus sp.): 1 µg/mL (≈ 0.726 µM); MIC Coagulase Negative Staphylococcus (GC 4547) (Staphylococcus sp.; [1]): 1 µg/mL (≈ 0.726 µM); MIC Coagulase Negative Staphylococcus (GC 4548) (Staphylococcus sp.): <0.5 µg/mL; MIC Coagulase Negative Staphylococcus (GC 4548) (Staphylococcus sp.; [1]): <0.5 µg/mL; MIC Coagulase Negative Staphylococcus (GC 4549) (Staphylococcus sp.): 1 µg/mL (≈ 0.726 µM); MIC Coagulase Negative Staphylococcus (GC 4549) (Staphylococcus sp.; [1]): 1 µg/mL (≈ 0.726 µM); MIC Coagulase Negative Staphylococcus (GC 4551) (Staphylococcus sp.): 1 µg/mL (≈ 0.726 µM); MIC Coagulase Negative Staphylococcus (GC 4551) (Staphylococcus sp.; [1]): 1 µg/mL (≈ 0.726 µM); MIC Coagulase Negative Staphylococcus (ID-3941) (Staphylococcus sp.): 1 µg/mL (≈ 0.726 µM); MIC Coagulase Negative Staphylococcus (ID-3941) (Staphylococcus sp.; [1]): 1 µg/mL (≈ 0.726 µM)
